Drawing on patent US8859541B2, “6-alkynylpyridines” (Boehringer Ingelheim International GmbH, priority 2012, dated 2014), this text covers IC50 for 28 compounds.

Assay [1] addresses T1, XIAP BIR3 (Homo sapiens, UniProt P98170).
T1 construct: covering amino acids 241 to 356; XIAP BIR3; made in house; host or cells: E. coli
The assay is described as follows: XIAP BIR3 binding assay (DELFIA), displacement of SMAC peptide. To be noted: GST-fusion BIR3 domain (aa 241 to 356) 10 nM, SMAC peptide 10 nM; activity of the (S)-isomers. The method, boiled down: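 Each BIR3 domain (10 nM) incubated with biotinylated N-terminal SMAC peptide (10 nM) and compound for 1 h at room temp in Tris/NaCl buffer with BSA, DTT and Triton X-100. Captured on streptavidin plates; bound BIR3 detected by Eu-labelled anti-GST time-resolved fluorescence, giving IC50 values.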

Assay [2] addresses T2, cIAP1 BIR3 (Homo sapiens, UniProt Q13490).
T2 construct: covering amino acids 256 to 363; cIAP1 BIR3; made in house; host or cells: E. coli
In words: cIAP1 BIR3 binding assay (DELFIA), displacement of SMAC peptide. To be noted: GST-fusion BIR3 domain (aa 256 to 363) 10 nM, SMAC peptide 10 nM; activity of the (S)-isomers. The protocol: Biological Methods XIAP BIR3 and cIAP1 BIR3 Binding Assays (DELFIA)
Peptide […]-Lys(Biotin), representing the N-terminus of mature human SMAC (SMAC peptide), was used as interaction partner in the protein-peptide interaction assay.
BIR3 domains (10 nM) were incubated with SMAC peptide (10 nM) in Assay Buffer (50 mM Tris, 120 mM NaCl, 0.1% BSA, 1 mM DTT, 0.05% TritonX100) for one hour at room temperature in the presence of inhibitiory compounds. The assay mixture was transferred to a strepatvidin coated plate and incubated for one hour at room temperature to allow binding of the biotinylated peptide and associated BIR3 domains to the plate. After several washing steps Eu labeled anti-GST antibody (e.g. Perkin Elmer DELFIA Eu-N1-antiGST AD0250) was added to detect BIR3 domain-SMAC peptide interactions according to Perkin Elmer's instructions. […] Time resolved Europium fluoresecence was measured in a Wallac Victor using Standard assay settings.
DELFIA assay results were plotted against compound concentrations and Software GraphPad Prizm was used to calculate half maximal inhibitory concentrations (IC50 values).

T1 sequence (P98170 241-356): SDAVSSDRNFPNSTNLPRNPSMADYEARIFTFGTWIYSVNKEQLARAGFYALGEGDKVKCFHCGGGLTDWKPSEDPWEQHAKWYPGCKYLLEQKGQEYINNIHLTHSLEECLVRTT
T2 sequence (Q13490 256-363): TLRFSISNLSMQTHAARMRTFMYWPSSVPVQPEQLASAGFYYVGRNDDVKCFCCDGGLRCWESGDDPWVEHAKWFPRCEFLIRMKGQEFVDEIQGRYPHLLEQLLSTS

A word on the IC50: it is the concentration that inhibits the measured activity by half. Read a low IC50 as greater potency in that assay. For `CNC(C)C(=O)Nc1ccc(-c2c(C)nc3ccccn23)c(C#Cc2ccc3ncsc3c2)n1` (centres unmarked) [Example 42, N-[6-[2-(1,3-benzothiazol-6-yl)-ethynyl]-5-(2-methyl-imidazo[1,2-a]pyridin-3-yl)-pyridin-2-yl]-2-(methylamino)-propanamide], the IC50 in assay [1] came out at 0.094 µM; in assay [2] it was 0.001 µM. In the same order, the values of `CNC(C)C(=O)Nc1ccc(-c2c(C)nc3ccccn23)c(C#Cc2ccc(-c3cnco3)cc2)n1` (centres unmarked) [Example 44, 2-(methylamino)-N-[5-(2-methylimidazo[1,2-a]pyridin-3-yl)-6-[2-[4-(1,3-oxazol-5-yl)-phenyl]ethynyl]pyridin-2-yl]-propanamide] are 0.136 µM and 0.001 µM.

Consider `CNC(C)C(=O)Nc1ccc(-c2c(C)nc3ccccn23)c(C#Cc2cc3ccccc3o2)n1` (centres unmarked) [Example 70, N-[6-[2-(1-benzofuran-2-yl)-ethynyl]-5-(2-methyl-imidazo[1,2-a]pyridin-3-yl)-pyridin-2-yl]-2-(methylamino)-propanamide], for which the IC50 in assay [1] was 0.066 µM; in assay [2] it was 0.001 µM.

With `CNC(C)C(=O)Nc1ccc(-c2c(C)nc3ccccn23)c(C#Cc2ccc3c(c2)OCC(=O)N3C)n1` (centres unmarked) [Example 33, 2-(methylamino)-N-[5-(2-methylimidazo[1,2-a]pyridin-3-yl)-6-[2-(4-methyl-3-oxo-1,4-benzoxazin-7-yl)ethynyl]-pyridin-2-yl]propanamide], the values for the IC50 in assay [1] and in assay [2] were 0.277 µM and 0.001 µM, respectively. In the same order, the values of `CC(N)C(=O)Nc1cc2ccccc2c(C#Cc2ccccc2)n1` (centres unmarked) [Example 204, 2-amino-N-[1-(2-phenyl-ethynyl)isoquinolin-3-yl]-propanamide] are 0.703 µM and 0.43 µM. In the same order, the values of `CNC(C)C(=O)Nc1ccc(-c2cnc(N3CCOCC3)nc2)c(C#Cc2ccccc2)n1` (centres unmarked) [Example 161, 2-(methylamino)-N-[5-(2-morpholin-4-ylpyrimidin-5-yl)-6-(2-phenylethynyl)pyridin-2-yl]-propanamide] are 0.102 µM and 0.022 µM. Regarding `CNC(C)C(=O)Nc1ccc(-c2c(C)nc3ccccn23)c(C#Cc2ccc(-n3ccnc3)cc2)n1` (centres unmarked) [Example 88, N-[6-[2-(4-imidazol-1-ylphenyl)ethynyl]-5-(2-methyl-imidazo[1,2-a]pyridin-3-yl)-pyridin-2-yl]-2-(methylamino)-propanamide], the values for the IC50 in assay [1] and in assay [2] were 0.207 µM and 0.001 µM, respectively. Taken in the same sequence, the figures for `CNC(C)C(=O)Nc1ccc(-c2c(C)nc3ccccn23)c(C#Cc2ccc3nn(C)cc3c2)n1` (centres unmarked) [Example 72, 2-(methylamino)-N-[5-(2-methylimidazo[1,2-a]pyridin-3-yl)-6-[2-(2-methylindazol-5-yl)-ethynyl]pyridin-2-yl]propan-amide] were 0.145 µM and 0.001 µM.

With `Cc1noc(C)c1-c1ccc(NC(=O)C(C)N)nc1C#Cc1ccccc1` (centres unmarked) [Example 165, 2-amino-N-[5-(3,5-dimethyl-1,2-oxazol-4-yl)-6-(2-phenylethynyl)-pyridin-2-yl]propanamide], the IC50 amounted to 0.067 µM in assay [1] and 0.001 µM in assay [2].

Take `CNC(C)C(=O)Nc1ccc(-c2ccc(N3CCCC3)nc2)c(C#Cc2ccccc2)n1` (centres unmarked) [Example 129, 2-(methylamino)-N-[6-(2-phenyl-ethynyl)-5-(6-pyrrolidin-1-ylpyridin-3-yl)pyridin-2-yl]-propanamide]: the half-maximal inhibitory concentration (IC50) worked out at 0.436 µM in assay [1] and 0.098 µM in assay [2].

Take `CNC(C)C(=O)Nc1ccc(-c2ccc3ncn(C)c(=O)c3c2)c(C#Cc2ccccc2)n1` (centres unmarked) [Example 187, 2-(methylamino)-N-[5-(3-methyl-4-oxoquinazolin-6-yl)-6-(2-phenylethynyl)pyridin-2-yl]-propanamide]: the IC50 was found to be 0.049 µM in assay [1] and 0.009 µM in assay [2]. As to `CNC(C)C(=O)Nc1ccc(-c2c(-c3ccncc3)nc3cc(C)ccn23)c(C#Cc2ccc3nccn3c2)n1` (centres unmarked) [Example 95, N-[6-(2-imidazo[1,2-a]pyridin-6-ylethynyl)-5-(7-methyl-2-pyridin-4-ylimidazo[1,2-a]-pyridin-3-yl)pyridin-2-yl]-2-(methylamino)propanamide], the values for the IC50 in assay [1] and in assay [2] were 0.097 µM and 0.001 µM, respectively. In the same order, the values of `CNC(C)C(=O)Nc1ccc(-c2cnn(C)c2C)c(C#Cc2ccccc2)n1` (centres unmarked) [Example 189, N-[5-(1,5-dimethylpyrazol-4-yl)-6-(2-phenylethynyl)pyridin-2-yl]-2-(methylamino)propanamide] are 0.087 µM and 0.03 µM.

Take `CC(N)C(=O)Nc1cccc(C#Cc2ccc(F)cc2F)n1` (centres unmarked) [Example 210, 2-amino-N-[6-[2-(2,4-difluorophenyl)ethynyl]pyridin-2-yl]propanamide]: the IC50 in assay [1] was 2.61 µM.

In assay [1], `CNC(C)C(=O)Nc1ccc(-c2c(C)nc3ccccn23)c(C#Cc2ccc3c(=O)n(C)ccc3c2)n1` (centres unmarked) [Example 32, 2-(methylamino)-N-[5-(2-methylimidazo[1,2-a]pyridin-3-yl)-6-[2-(2-methyl-1-oxoisoquinolin-6-yl)ethynyl]-pyridin-2-yl]propanamide] gave a half-maximal inhibitory concentration (IC50) of 0.228 µM. This IC50 lies about 11-fold lower than the previous one. Still for that read-out and setting: with `CNC(C)C(=O)Nc1ccc(-c2c(C)ncnc2C)c(C#Cc2ccc3ccccc3c2)n1` (centres unmarked) [Example 173, N-[5-(4,6-dimethylpyrimidin-5-yl)-6-(2-naphthalen-2-ylethynyl)pyridin-2-yl]-2-(methylamino)propanamide] the figure was 0.324 µM; with `CC(N)C(=O)Nc1ccc(-c2cccc(F)c2)c(C#Cc2ccccc2)n1` (centres unmarked) [Example 114, 2-amino-N-[5-(3-fluorophenyl)-6-(2-phenylethynyl)pyridin-2-yl]-propanamide], 1.63 µM. Same read-out and setting: under `CNC(C)C(=O)Nc1ccc(-c2c(C)nc3ccccn23)c(C#Cc2nc3ccccc3s2)n1` (centres unmarked) [Example 67, N-[6-[2-(1,3-benzothiazol-2-yl)-ethynyl]-5-(2-methyl-imidazo[1,2-a]pyridin-3-yl)-pyridin-2-yl]-2-(methylamino)-propanamide] stands 0.27 µM. Still for that read-out and setting: under `CC(N)C(=O)Nc1cc(Cl)cc(C#Cc2ccccc2)n1` (centres unmarked) [Example 197, 2-amino-N-[4-chloro-6-(2-phenylethynyl)pyridin-2-yl]propanamide] stands 3.18 µM; under `CNC(C)C(=O)Nc1ccc(-c2nccc3ccccc23)c(C#Cc2ccccc2)n1` (centres unmarked) [Example 179, N-[5-isoquinolin-1-yl-6-(2-phenylethynyl)pyridin-2-yl]-2-(methylamino)propanamide], 3.8 µM; under `Cc1cccc(C)c1-c1ccc(NC(=O)C(C)N)nc1C#Cc1ccccc1` (centres unmarked) [Example 104, 2-amino-N-[5-(2,6-dimethyl-phenyl)-6-(2-phenylethynyl)-pyridin-2-yl]propanamide], 2.02 µM. `CC(N)C(=O)Nc1cccc(C#CC2=CCCCC2)n1` (centres unmarked) [Example 225, 2-amino-N-[6-[2-(cyclohexen-1-yl)ethynyl]pyridin-2-yl]propanamide]: the half-maximal inhibitory concentration (IC50) in assay [1] worked out at 7.04 µM.

As to `CNC(C)C(=O)Nc1ccc(-c2cncnc2)c(C#Cc2cc(F)cc(Cl)c2)n1` (centres unmarked) [Example 17, N-[6-[2-(3-chloro-5-fluorophenyl)ethynyl]-5-pyrimidin-5-ylpyridin-2-yl]-2-(methylamino)propanamide], the IC50 in assay [1] is 0.122 µM. This IC50 is about 58-fold lower than that of the compound before. Same read-out and setting: under `CNC(C)C(=O)Nc1ccc(N(C)C(=O)C2CCCC2)c(C#Cc2ccccc2)n1` (centres unmarked) [Example 248, N-methyl-N-[6-[[2-(methyl-amino)propanoyl]amino]-2-(2-phenylethynyl)pyridin-3-yl]-cyclopentanecarboxamide] stands 0.794 µM; under `CNC(C)C(=O)Nc1ccc(-c2cncnc2)c(C#Cc2ccc3[nH]c(C)nc3c2)n1` (centres unmarked) [Example 7, 2-(methylamino)-N-[6-[2-(2-methyl-1H-benzimidazol-5-yl)ethynyl]-5-pyrimidin-5-ylpyridin-2-yl]propanamide], 0.46 µM. Still for that read-out and setting: under `CNc1ncc(-c2ccc(NC(=O)C(C)NC)nc2C#Cc2ccc3ccccc3c2)cn1` (centres unmarked) [Example 157, 2-(methylamino)-N-[5-[2-(methylamino)pyrimidin-5-yl]-6-(2-naphthalen-2-ylethynyl)-pyridin-2-yl]propanamide] stands 0.276 µM; under `CNC(C)C(=O)Nc1ccc(-c2c(C)nc3cnccn23)c(C#Cc2ccc3ncccc3c2)n1` (centres unmarked) [Example 68, 2-(methylamino)-N-[5-(2-methylimidazo[1,2-a]pyrazin-3-yl)-6-(2-quinolin-6-ylethynyl)-pyridin-2-yl]propanamide], 0.165 µM. On the same count and under the same terms, with `CC(N)C(=O)Nc1ccc(-c2cccnc2)c(C#Cc2ccccc2)n1` (centres unmarked) [Example 101, 2-amino-N-[6-(2-phenylethynyl)-5-pyridin-3-ylpyridin-2-yl]-propanamide] the figure was 0.128 µM.
